Results from US12583851B2, “Heteroaryl-substituted pyrazine derivatives as pesticides” (Elanco Animal Health GmbH, priority 2019, dated 2026).

Assays:
Assay type in all cases: in vivo
[1] = test system: fall armyworm larvae (Spodoptera frugiperda); experiment: Spodoptera frugiperda spray test; settings: 168 h, maize leaf sections, after 7 days
Experimental: Spodoptera fruaiperda—Spray Test
Solvent: 78.0 parts by weight acetone • 1.5 parts by weight dimethylformamide
(§1) Emulsifier: alkylarylpolyglycol ether
(§2) To produce a suitable preparation of active compound, 1 part by weight of active compound is mixed with the stated amount of solvents and is diluted with water, containing an emulsifier concentration of 1000 ppm, to the desired concentration. Further test concentrations are prepared by dilution with emulsifier containing water.
Maize (Zea mays) leaf sections are sprayed with a preparation of the active ingredient of the desired concentration. Once dry, the leaf sections are infested with fall armyworm larvae (Spodoptera frugiperda).
After 7 days mortality in % is determined. 100% means all caterpillars have been killed and 0% means none of the caterpillars have been killed.

[2] = test system: Rhipicephalus (Boophilus) microplus larvae (strain Parkhurst, resistant against synthetic pyrethroids); experiment: Rhipicephalus (Boophilus) microplus in-vitro contact test, larval cattle tick; settings: after 48 hours, read-out: efficacy (larvae dead or moribund); for pest or weed control at 1 µg/cm2, 100 g/ha: 1 μg/cm^2 (=100 g/ha); for pest or weed control at 5 µg/cm2, 500 g/ha: 5 μg/cm^2 (=500 g/ha)
Experimental: Rhipicephalus (Boophilus) microplus—In-Vitro Contact Tests Larval Cattle Tick (Strain Parkhurst, Resistant Against Synthetic Pyrethroids)
9 mg compound is solved in 1 mL acetone and diluted with acetone to the desired concentration. […] the test solution is filled in 25 mL glass test tubes and homogeneously distributed on the inner walls by rotation and tilting on a shaking device (2 h at 30 rpm). With a compound concentration of 900 ppm, an inner surface of 44.7 cm^2 and a homogeneous distribution, a dose of 5 μg/cm^2 is achieved.
After the solvent has evaporated, each test tube is filled with 20-50 cattle tick larvae (Rhipicephalus microplus), closed with a perforated lid and incubated in a horizontal position at 85% relative humidity and 27° C. in an incubator. After 48 hours efficacy is determined. The larvae are patted on the ground of the tubes and negative geotactic behaviour is recorded.
An efficacy of 100% means all larvae are dead or moribund; 0% means no larvae are dead or moribund.

[3] = test system: larvae of the banded cucumber beetle (Diabrotica balteata); experiment: Diabrotica balteata spray test; settings: 168 h, after 7 days, read-out: efficacy (seedling growth); for pest or weed control at 6.4 µg/disc, 20 g/ha: 20 g/ha (=6.4 μg/well); for pest or weed control at 32 µg/disc, 100 g/ha: 100 g/ha (=32 μg/well)
Experimental: Diabrotica balteata—Spray Test
Solvent: 78.0 parts by weight of acetone • • 1.5 parts by weight of dimethylformamide
as §1
as §2, with “solvent,” for “solvents”, “and the concentrate” for “and”
Soaked wheat seeds (Triticum aestivum) are placed in a multiple well plate filled with agar and some water and are incubated for 1 day to germinate (5 seeds per well). The germinated wheat seeds are sprayed with a test solution containing the desired concentration of the active ingredient. Afterwards each unit is infected with 10-20 larvae of the banded cucumber beetle (Diabrotica balteata).
After 7 days efficacy in % is determined. 100% means all the seedlings have grown up like in the untreated, uninfected control; 0% means none of the seedlings have grown.

## Cc1cnc(-c2ncc(C(=O)N(C)CC3CC3)s2)c(C(C)NC(=O)c2cc(C(F)(F)F)cc(C(F)(F)F)c2)n1 (racemic) [Example I-73, (rac)-2-(3-{1-[3,5-Bis(trifluoromethyl)benzamido]ethyl}-5-methylpyrazin-2-yl)-N-(cyclopropylmethyl)-N-methyl-1,3-thiazole-5-carboxamide]
[1]
  mortality at 100 g/ha: 100%

## CC(NC(=O)c1cc(C(F)(F)F)cc(C(F)(F)F)c1)c1nccnc1-n1cc(C(=O)N2CCCC2)cn1 (racemic) [Example I-91, N-[(rac)-1-{3-[4-(Pyrrolidine-1-carbonyl)-1H-pyrazol-1-yl]pyrazin-2-yl}ethyl]-3,5-bis(trifluoromethyl)benzamide]
[2]
  pest or weed control at 1 µg/cm2, 100 g/ha: 100%
  pest or weed control at 5 µg/cm2, 500 g/ha: 100%

## CC(NC(=O)c1cc(Cl)cc(OC(F)(F)F)c1)c1nccnc1-c1ccc(C(F)(F)F)cn1 (racemic) [Example I-47, (rac)-3-Chloro-5-(trifluoromethoxy)-N-[1-{3-[5-(trifluoromethyl)pyridin-2-yl]pyrazin-2-yl}ethyl]benzamide]
[1]
  mortality at 100 g/ha: 100%

## CCN(C)C(=O)c1cnc(-c2ncc(C)nc2C(C)NC(=O)c2cc(C(F)(F)F)nc(C(F)(F)F)c2)s1 (racemic) [Example I-151, (rac)-N-[1-(3-{5-[Ethyl(methyl)carbamoyl]-1,3-thiazol-2-yl)-6-methylpyrazin-2-yl)ethyl]-2,6-bis(trifluoromethyl)pyridine-4-carboxamide]
[1]
  mortality at 100 g/ha: 100%

## CC(NC(=O)c1cc(C(F)(F)F)cc(C(F)(F)F)c1)c1nccnc1-n1cc(Cl)cn1 (racemic) [Example I-96, N-{(rac)-1-[3-(4-Chloro-1H-pyrazol-1-yl)pyrazin-2-yl]ethyl}-3,5-bis(trifluoromethyl)benzamide]
[3]
  pest or weed control at 6.4 µg/disc, 20 g/ha: 100%
  pest or weed control at 32 µg/disc, 100 g/ha: 100%

## COc1ccc(-c2nccnc2C(C)NC(=O)c2cc(Cl)cc(C(F)(F)F)c2)nc1 (stereo not shown) [Example I-29]
[3]
  pest or weed control at 6.4 µg/disc, 20 g/ha: 100%
  pest or weed control at 32 µg/disc, 100 g/ha: 100%
[2]
  pest or weed control at 5 µg/cm2, 500 g/ha: 90%

## CC(NC(=O)c1cc(C(F)(F)F)cc(C(F)(F)F)c1)c1nccnc1-c1ccc(C(F)(F)F)cn1 (racemic) [Example I-45, (rac)-3,5-Bis(trifluoromethyl)-N-[1-{3-[5-(trifluoromethyl)pyridin-2-yl]pyrazin-2-yl}ethyl]benzamide]
[1]
  mortality at 100 g/ha: 100%

## CCN(C)C(=O)c1cnc(-c2nc(C)cnc2C(C)NC(=O)c2cc(C(F)(F)F)cc(C(F)(F)F)c2)s1 (stereo in doubt) [Example I-157, (+)-2-(3-{(1S)-1-[3,5-bis(trifluoromethyl)benzamido]ethyl}-6-methylpyrazin-2-yl)-N-ethyl-N-methyl-1,3-thiazole-5-carboxamide]
[1]
  mortality at 100 g/ha: 100%

## CC(NC(=O)c1cc(Br)cc(OC(F)(F)F)c1)c1nccnc1-n1cc(Cl)cn1 (racemic) [Example I-97, (rac)-3-Bromo-N-{1-[3-(4-chloro-1H-pyrazol-1-yl)pyrazin-2-yl]ethyl}-5-(trifluoromethoxy)benzamide]
[3]
  pest or weed control at 32 µg/disc, 100 g/ha: 100%

## CC(NC(=O)c1cc(Cl)cc(Br)c1)c1nccnc1-c1ccc(C(F)(F)F)cn1 (racemic) [Example I-43, (rac)-3-Bromo-5-chloro-N-[1-{3-[5-(trifluoromethyl)pyridin-2-yl]pyrazin-2-yl}ethyl]benzamide]
[3]
  pest or weed control at 32 µg/disc, 100 g/ha: 80%

## CC(NC(=O)c1cc(C(F)(F)F)cc(C(F)(F)F)c1)c1nccnc1-c1ncc(C(=O)N2CCCC2)s1 (racemic) [Example I-71, (rac)-N-[1-{3-[5-(Pyrrolidine-1-carbonyl)-1,3-thiazol-2-yl]pyrazin-2-yl}ethyl]-3,5-bis(trifluoromethyl)benzamide]
[3]
  pest or weed control at 6.4 µg/disc, 20 g/ha: 100%
  pest or weed control at 32 µg/disc, 100 g/ha: 100%

## Cc1cnc(C(C)NC(=O)c2cc(C(F)(F)F)cc(C(F)(F)F)c2)c(-c2ncc(C(=O)N3C[C@@H](C)O[C@@H](C)C3)s2)n1 (mixture of isomers) [Example I-126, (rac)-N-[1-(3-{5-[cis-2,6-Dimethylmorpholine-4-carbonyl]-1,3-thiazol-2-yl}-5-methylpyrazin-2-yl)ethyl]-3,5-bis(trifluoromethyl)benzamide]
[3]
  pest or weed control at 32 µg/disc, 100 g/ha: 100%
[2]
  pest or weed control at 1 µg/cm2, 100 g/ha: 100%
  pest or weed control at 5 µg/cm2, 500 g/ha: 100%

## CC(NC(=O)c1cc(Cl)cc(C#N)c1)c1nccnc1-c1ccc(C(F)(F)F)cn1 (racemic) [Example I-40, (rac)-3-Chloro-5-cyano-N-[1-{3-[5-(trifluoromethyl)pyridin-2-yl]pyrazin-2-yl}ethyl]benzamide]
[3]
  pest or weed control at 32 µg/disc, 100 g/ha: 100%

## CC(NC(=O)c1cc(C(F)(F)F)cc(C(F)(F)F)c1)c1nccnc1-c1ccc(C(=O)N2CCCC2)cn1 (racemic) [Example I-37, (rac)-N-[1-{3-[5-(Pyrrolidine-1-carbonyl)pyridin-2-yl]pyrazin-2-yl}ethyl]-3,5-bis(trifluoromethyl)benzamide]
[2]
  pest or weed control at 1 µg/cm2, 100 g/ha: 100%
  pest or weed control at 5 µg/cm2, 500 g/ha: 100%

## CC(NC(=O)c1cc(Br)cc(I)c1)c1nccnc1-n1cc(C#N)cn1 (racemic) [Example I-112, (rac)-3-Bromo-N-{1-[3-(4-cyano-1H-pyrazol-1-yl)pyrazin-2-yl]ethyl}-5-iodobenzamide]
[3]
  pest or weed control at 32 µg/disc, 100 g/ha: 100%

## CC(NC(=O)c1cc(C(F)(F)F)cc(C(F)(F)F)c1)c1nccnc1-c1ncc(C(=O)N2CCC[Si](C)(C)C2)s1 (racemic) [Example I-70, (rac)-N-[1-{3-[5-(3,3-Dimethyl-1,3-azasilinane-1-carbonyl)-1,3-thiazol-2-yl]pyrazin-2-yl}ethyl]-3,5-bis(trifluoromethyl)benzamide]
[3]
  pest or weed control at 32 µg/disc, 100 g/ha: 100%

## CC(NC(=O)c1cc(Cl)cc(C#N)c1)c1nccnc1-n1cc(C#N)cn1 (racemic) [Example I-121, (rac)-3-Chloro-5-cyano-N-{1-[3-(4-cyano-1H-pyrazol-1-yl)pyrazin-2-yl]ethyl}benzamide]
[3]
  pest or weed control at 32 µg/disc, 100 g/ha: 100%

## COc1ccc(-c2nccnc2C(C)NC(=O)c2cc(C(F)(F)F)cc(C(F)(F)F)c2)nc1 (stereo not shown) [Example I-26]
[3]
  pest or weed control at 6.4 µg/disc, 20 g/ha: 100%
  pest or weed control at 32 µg/disc, 100 g/ha: 100%
[2]
  pest or weed control at 5 µg/cm2, 500 g/ha: 90%

## CC(NC(=O)c1cc(Br)cc(OC(F)(F)F)c1)c1nccnc1-c1ccc(C(F)(F)F)cn1 (racemic) [Example I-44, (rac)-3-Bromo-5-(trifluoromethoxy)-N-[1-{3-[5-(trifluoromethyl)pyridin-2-yl]pyrazin-2-yl}ethyl]benzamide]
[3]
  pest or weed control at 32 µg/disc, 100 g/ha: 100%

## CC(NC(=O)c1cc(Cl)cc(OC(F)(F)F)c1)c1nccnc1-n1cc(C#N)cn1 (racemic) [Example I-104, (rac)-3-Chloro-N-{1-[3-(4-cyano-1H-pyrazol-1-yl)pyrazin-2-yl]ethyl}-5-(trifluoromethoxy)benzamide]
[3]
  pest or weed control at 6.4 µg/disc, 20 g/ha: 100%
  pest or weed control at 32 µg/disc, 100 g/ha: 100%

## CC(NC(=O)c1cc(Cl)cc(C#N)c1)c1nccnc1-c1nccs1 (racemic) [Example I-57, (rac)-3-Chloro-5-cyano-N-{1-[3-(1,3-thiazol-2-yl)pyrazin-2-yl]ethyl}benzamide]
[3]
  pest or weed control at 6.4 µg/disc, 20 g/ha: 80%

## Cc1cnc(-c2ncc(C(=O)N3C[C@@H](C)O[C@@H](C)C3)s2)c(C(C)NC(=O)c2cc(C(F)(F)F)cc(C(F)(F)F)c2)n1 (mixture of isomers) [Example I-127, (rac)-N-[1-(3-{5-[cis-2,6-dimethylmorpholine-4-carbonyl]-1,3-thiazol-2-yl}-6-methylpyrazin-2-yl)ethyl]-3,5-bis(trifluoromethyl)benzamide]
[2]
  pest or weed control at 1 µg/cm2, 100 g/ha: 100%
  pest or weed control at 5 µg/cm2, 500 g/ha: 100%

## CC(NC(=O)c1cc(Cl)cc(C#N)c1)c1nccnc1-c1ccccn1 (stereo not shown) [Example I-18]
[3]
  pest or weed control at 32 µg/disc, 100 g/ha: 100%

## CC(NC(=O)c1cncc(C(C)(C)C)c1)c1nccnc1-c1nccs1 (racemic) [Example I-6, (rac)-5-(tert-Butyl)-N-(1-(3-(thiazol-2-yl)pyrazin-2-yl)ethyl)nicotinamide]
[2]
  pest or weed control at 1 µg/cm2, 100 g/ha: 80%
  pest or weed control at 5 µg/cm2, 500 g/ha: 80%
